# Experimental data: patent US11072626B2, “Small molecule inhibitors of Galectin-3” (BRISTOL-MYERS SQUIBB COMPANY, priority 2017, dated 2021)
# Like-named read-outs stand apart in the source and are kept apart here.
# Biological target: His-tagged recombinant human Gal-3 (hGal-3) (Homo sapiens (Human), UniProt P17931)
# Experiment: Gal-3 HTRF assay (hGal-3 / B-ASF)
# Format: binding
# Details: 15 nM hGal-3, 15 nM B-ASF
# Description: ASSAY BUFFER Composition: 25 mM HEPES, 100 mM NaCl, 0.005% Tween 20, 0.05% BSA prepared in sterile water (all reagents from Sigma)
# Positive Control: 100% DMSO (1 μl)+His-tagged hGal-3 (20 μL)+B-ASF (20 μl)+Anti-His Terbium Antibody (5 μl)+Strep d2 Antibody (5 μl).
# Negative Control: 100% DMSO (1 μl)+His-tagged hGal-3 (20μL)+Anti His Terbium Antibody (5 μl)+Strep d2 Aantibody (5 μl).
# PROTOCOL: The Gal-3 assays were performed in 384 white Opti plates in three replicates at room temperature with gentle shaking at 250-300 rpm From the original stocks, […] working stock concentrations of His-tagged recombinant human Gal-3 (hGal-3) and that of B-ASF were prepared. From the working stock, 20 μl of hGal-3 (15 nM) and 20 μl B-ASF (15 nM) were added to the plates. In Negative Control, only hGal-3 was added. A concentration range of 50× working stocks were prepared for the compounds in 100% DMSO. Aliquots of 1 uL of the compounds were added to the wells and pre-incubated with 20 μl hGal-3 per well for 30 minutes Then 20 μl B-ASF were added and incubated for another 1 hour. To detect the signal, 5 μ(final conc. of 1.0 nM) terbium labelled Anti-His antibody was added and incubated for 30 min followed by adding 5 μ(final conc. of 20 nM) Streptavidin d2 and incubation for another 1 hour. The assay signal was detected using HTRF screen protocol (Excitation wavelength=340 nm, emission wavelength=615 nm/665 nm) on Envision 2104 Multilabel Reader. Data analysed using Toolset and Curve Master. Results are reported in the experimental section (IC50 in μM).
# [1] = three replicates, room temperature, read-out: hGal3 IC50
# [2] = table after Example 46, read-out: hGal3 IC50
# [3] = table after Example 4, read-out: hGal3 IC50
# Sequence of His-tagged recombinant human Gal-3 (hGal-3) (P17931 whole entry): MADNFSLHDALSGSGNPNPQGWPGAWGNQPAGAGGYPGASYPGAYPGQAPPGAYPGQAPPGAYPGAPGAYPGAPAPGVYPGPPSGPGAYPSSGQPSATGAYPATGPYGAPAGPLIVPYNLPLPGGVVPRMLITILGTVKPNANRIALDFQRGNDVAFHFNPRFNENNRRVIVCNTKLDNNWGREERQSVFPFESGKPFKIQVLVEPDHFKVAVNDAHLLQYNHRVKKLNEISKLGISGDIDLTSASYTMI
Compound,IC50 [1],IC50 [2],further results
"CO[C@@H]1[C@@H](n2cc(C(=O)NC3CC3)nn2)[C@@H](O)[C@@H](CO)O[C@@H]1Sc1ccc(Cl)c(Cl)c1 [Example 43, N-cyclopropyl-1-((2R,3R,4S,5R,6R)-2-((3,4-dichlorophenyl)thio)-5-hydroxy-6-(hydroxymethyl)-3-methoxytetrahydro-2H-pyran-4-yl)-1H-1,2,3-triazole-4-carboxamide]",2900 nM,,
"CO[C@@H]1[C@@H](n2cc(C(=O)N(C)C3CC3)nn2)[C@@H](O)[C@@H](CO)O[C@@H]1Sc1ccc(Cl)c(Cl)c1 [Example 44, N-cyclopropyl-1-((2R,3R,4S,5R,6R)-2-((3,4-dichlorophenyl)thio)-5-hydroxy-6-(hydroxymethyl)-3-methoxytetrahydro-2H-pyran-4-yl)-N-methyl-1H-1,2,3-triazole-4-carboxamide]",5000 nM,,
"CO[C@@H]1[C@@H](n2nncc2C(=O)O)[C@@H](O)[C@@H](CO)O[C@@H]1Sc1ccc(Cl)c(Cl)c1 [Example 45, 1-((2R,3R,4S,5R,6R)-2-((3,4-dichlorophenyl)thio)-5-hydroxy-6-(hydroxymethyl)-3-methoxytetrahydro-2H-pyran-4-yl)-1H-1,2,3-triazole-5-carboxylic acid]",1520 nM,,
"O=C(O)CO[C@@H]1[C@@H](n2cc(-c3ccccc3)nn2)[C@@H](O)[C@@H](CO)O[C@@H]1Sc1ccc(Cl)c(Cl)c1 [Example 46, 2-(((2R,3R,4S,5R,6R)-2-((3,4-dichlorophenyl)thio)-5-hydroxy-6-(hydroxymethyl)-4-(4-phenyl-1H-1,2,3-triazol-1-yl)tetrahydro-2H-pyran-3-yl)oxy)acetic acid]",1360 nM,,
COc1ccc(-c2cn([C@H]3[C@@H](O)[C@@H](CO)O[C@H](Sc4ccc(Cl)c(Cl)c4)[C@@H]3OCC(=O)O)nn2)cc1 [Example 47],,1530 nM,
COc1cccc(-c2cn([C@H]3[C@@H](O)[C@@H](CO)O[C@H](Sc4ccc(Cl)c(Cl)c4)[C@@H]3OCC(=O)O)nn2)c1 [Example 48],,740 nM,
Cc1cccc(-c2cn([C@H]3[C@@H](O)[C@@H](CO)O[C@H](Sc4ccc(Cl)c(Cl)c4)[C@@H]3OCC(=O)O)nn2)c1 [Example 49],,1340 nM,
O=C(O)CO[C@@H]1[C@@H](n2cc(-c3ccc(Cl)cc3)nn2)[C@@H](O)[C@@H](CO)O[C@@H]1Sc1ccc(Cl)c(Cl)c1 [Example 50],,620 nM,
O=C(O)CO[C@@H]1[C@@H](n2cc(-c3ccccc3F)nn2)[C@@H](O)[C@@H](CO)O[C@@H]1Sc1ccc(Cl)c(Cl)c1 [Example 51],,1610 nM,
"O=C(O)CO[C@@H]1[C@@H](n2cc(-c3cc(F)c(F)c(F)c3)nn2)[C@@H](O)[C@@H](CO)O[C@@H]1Sc1ccc(Cl)c(Cl)c1 [compound 2, 2-(((2R,3R,4S,5R,6R)-2-((3,4-dichlorophenyl)thio)-5-hydroxy-6-(hydroxymethyl)-4-(4-(3,4,5-trifluorophenyl)-1H-1,2,3-triazol-1-yl)tetrahydro-2H-pyran-3-yl)oxy)acetic acid]",,,IC50 [3]: 46 nM
"OC[C@H]1O[C@H](Sc2ccc(Cl)c(Cl)c2)[C@H](OCCN2CCOCC2)[C@@H](n2cc(-c3cc(F)c(F)c(F)c3)nn2)[C@H]1O [compound 5, (2R,3R,4S,5R,6R)-6-((3,4-dichlorophenyl)thio)-2-(hydroxymethyl)-5-(2-morpholinoethoxy)-4-(4-(3,4,5-trifluorophenyl)-1H-1,2,3-triazol-1-yl)tetrahydro-2H-pyran-3-ol]",,,IC50 [3]: 195 nM

# Now from value to molecule, other results behind:
IC50 [1],IC50 [2],Compound,further results
,250 nM,O=C(O)CO[C@@H]1[C@@H](n2cc(-c3cc(F)cc(F)c3)nn2)[C@@H](O)[C@@H](CO)O[C@@H]1Sc1ccc(Cl)c(Cl)c1 [Example 52],
,1750 nM,Cc1ccccc1-c1cn([C@H]2[C@@H](O)[C@@H](CO)O[C@H](Sc3ccc(Cl)c(Cl)c3)[C@@H]2OCC(=O)O)nn1 [Example 53],
,230 nM,Cc1cc(-c2cn([C@H]3[C@@H](O)[C@@H](CO)O[C@H](Sc4ccc(Cl)c(Cl)c4)[C@@H]3OCC(=O)O)nn2)ccc1F [Example 54],
,70 nM,O=C(O)CO[C@@H]1[C@@H](n2cc(-c3ccc(F)c(F)c3)nn2)[C@@H](O)[C@@H](CO)O[C@@H]1Sc1ccc(Cl)c(Cl)c1 [Example 55],
,7430 nM,COC(=O)c1ccc(-c2cn([C@H]3[C@@H](O)[C@@H](CO)O[C@H](Sc4ccc(Cl)c(Cl)c4)[C@@H]3OCC(=O)O)nn2)cc1 [Example 56],
,310 nM,O=C(O)CO[C@@H]1[C@@H](n2cc(-c3cccc(F)n3)nn2)[C@@H](O)[C@@H](CO)O[C@@H]1Sc1ccc(Cl)c(Cl)c1 [Example 57],
,840 nM,O=C(O)CO[C@@H]1[C@@H](n2cc(-c3ccc(F)cn3)nn2)[C@@H](O)[C@@H](CO)O[C@@H]1Sc1ccc(Cl)c(Cl)c1 [Example 58],
,5550 nM,O=C(O)CO[C@@H]1[C@@H](n2cc(-c3cc(F)ccn3)nn2)[C@@H](O)[C@@H](CO)O[C@@H]1Sc1ccc(Cl)c(Cl)c1 [Example 59],
2200 nM,,"OC[C@H]1O[C@H](Sc2ccc(Cl)c(Cl)c2)C[C@@H](n2cc(-c3cc(F)c(F)c(F)c3)nn2)[C@H]1O [Example 60, (2R,3R,4R,6R)-6-((3,4-dichlorophenyl)thio)-2-(hydroxymethyl)-4-(4-(3,4,5-trifluorophenyl)-1H-1,2,3-triazol-1-yl)tetrahydro-2H-pyran-3-ol]",
160 nM,,"O=S(=O)(c1ccc(Cl)c(Cl)c1)[C@@H]1C[C@@H](n2cc(-c3cc(F)c(F)c(F)c3)nn2)[C@@H](O)[C@@H](CO)O1 [Example 61, (2R,3R,4R,6R)-6-((3,4-dichlorophenyl)sulfonyl)-2-(hydroxymethyl)-4-(4-(3,4,5-trifluorophenyl)-1H-1,2,3-triazol-1-yl)tetrahydro-2H-pyran-3-ol]",
1560 nM,,"O=C(O)CO[C@@H]1[C@@H](n2cnc(-c3cccc(F)c3)c2)[C@@H](O)[C@@H](CO)O[C@@H]1Sc1ccc(Cl)c(Cl)c1 [Example 63, 2-(((2R,3R,4S,5R,6R)-2-((3,4-dichlorophenyl)thio)-4-(4-(3-fluorophenyl)-1H-imidazol-1-yl)-5-hydroxy-6-(hydroxymethyl)tetrahydro-2H-pyran-3-yl)oxy)acetic acid]",
